The source of these data is patent US3995021A, “Antigens of 5,5'alkylphenyl barbituric acids and related hydantoin compounds” (Biological Developments, Inc., priority 1975, dated 1976).

The structures appear in SMILES notation.

This experiment relates to antibodies raised with the product of Example 1. In words: Radioimmune assay: cross-reactivity of other barbituric acids (competitive inhibition of tritiated phenobarbital binding to antibody). The conditions noted are these: at 50% inhibition, 4° C, 2 hours.

With `CCC1(CCC(C)C)C(=O)NC(=O)NC1=O` [Amobarbital], the “Percent Cross-Reactivity” value turned out to be 0.6%.

As for `CCCC(C)C1(CC)C(=O)NC(=O)NC1=O` (stereo not shown) [Pentobarbital], the “Percent Cross-Reactivity” value turned out to be 2.2%.

For the molecule `C=CCC1(C(C)CCC)C(=O)NC(=O)NC1=O` (stereo not shown) [Secobarbital], the “Percent Cross-Reactivity” value was found to be 1.8%.

`CCCC(C)C1(CC)C(=O)NC(=S)NC1=O` (stereo not shown) [Thiopental]: the “Percent Cross-Reactivity” value stood at 0.2%.
